The text below walks through data of ChEMBL document CHEMBL4414672, “Synthesis of certain benzothieno[3,2-d]pyrimidine derivatives as a selective SIRT2 inhibitors” (Eur J Med Chem, 2020).

In assay [1] the test system is MCF7. Nature of the assay: Cytotoxicity against human MCF7 cells assessed as reduction in cell viability after 24 hrs by MTT assay. The assay is classed as functional, cell-based. Particulars: MCF7, 24 h.
Assay [2] relates to UO-31. Description: Cytotoxicity against human UO31 cells assessed as reduction in cell viability after 24 hrs by MTT assay. The format is functional, cell-based. Particulars: UO-31, 24 h.
The test system of assay [3] is K562. Nature of the assay: Growth inhibition of human K562 cells at 10^-5 M incubated for 48 hrs by sulforhodamine B assay. Particulars: K562, 48 h, read-out: GI. The assay is classed as functional. A general note: The SRB assay estimates cell density from bound dye.
Assay [4] has as its system SR. Nature of the assay: Growth inhibition of human SR cells at 10^-5 M incubated for 48 hrs by sulforhodamine B assay. The assay is classed as functional. The following applies: read-out: GI.
The test system of assay [5] is HOP-92. Description: Growth inhibition of human HOP92 cells at 10^-5 M incubated for 48 hrs by sulforhodamine B assay. The assay is classed as functional. Particulars: HOP-92, 48 h, read-out: GI.
Assay [6] has as its system NCI-H23. Description: Growth inhibition of human NCI-H23 cells at 10^-5 M incubated for 48 hrs by sulforhodamine B assay. The format is functional. The following applies: NCI-H23, 48 h, read-out: GI.
Assay [7] relates to NCI-H322M. Nature of the assay: Growth inhibition of human NCI-H322M cells at 10^-5 M incubated for 48 hrs by sulforhodamine B assay. The assay is classed as functional. Particulars: read-out: GI.
For assay [8], the system named is SF-539. Description: Growth inhibition of human SF539 cells at 10^-5 M incubated for 48 hrs by sulforhodamine B assay. The following applies: SF-539, 48 h, read-out: GI. The assay is classed as functional.
For assay [9], the system named is SNB-19. Nature of the assay: Growth inhibition of human SNB19 cells at 10^-5 M incubated for 48 hrs by sulforhodamine B assay. The format is functional. The following applies: SNB-19, 48 h, read-out: GI.
The subject of assay [10] is Malme-3M. Nature of the assay: Growth inhibition of human MALME-3M cells at 10^-5 M incubated for 48 hrs by sulforhodamine B assay. The assay is classed as functional. The following applies: read-out: GI.
Assay [11] deals with M14. Nature of the assay: Growth inhibition of human M14 cells at 10^-5 M incubated for 48 hrs by sulforhodamine B assay. The format is functional. Particulars: M14, 48 h, read-out: GI.
In assay [12] the test system is SK-MEL-2. Description: Growth inhibition of human SK-MEL-2 cells at 10^-5 M incubated for 48 hrs by sulforhodamine B assay. The format is functional. Particulars: SK-MEL-2, 48 h, read-out: GI.
Assay [13] has as its system UACC-62. Nature of the assay: Growth inhibition of human UACC62 cells at 10^-5 M incubated for 48 hrs by sulforhodamine B assay. The format is functional. The following applies: UACC-62, 48 h, read-out: GI.
Assay [14] concerns OVCAR-3. Description: Growth inhibition of human OVCAR3 cells at 10^-5 M incubated for 48 hrs by sulforhodamine B assay. The format is functional. The following applies: OVCAR-3, 48 h, read-out: GI.
Assay [15] has as its system OVCAR-8. Nature of the assay: Growth inhibition of human OVCAR8 cells at 10^-5 M incubated for 48 hrs by sulforhodamine B assay. The format is functional. The following applies: OVCAR-8, 48 h, read-out: GI.
Assay [16] concerns SK-OV-3. Description: Growth inhibition of human SKOV3 cells at 10^-5 M incubated for 48 hrs by sulforhodamine B assay. The following applies: SK-OV-3, 48 h, read-out: GI. The assay is classed as functional.
For assay [17], the system named is A498. Description: Growth inhibition of human A498 cells at 10^-5 M incubated for 48 hrs by sulforhodamine B assay. The format is functional. The following applies: A498, 48 h, read-out: GI.
Assay [18] concerns RXF 393. Description: Growth inhibition of human RXF393 cells at 10^-5 M incubated for 48 hrs by sulforhodamine B assay. The assay is classed as functional. The following applies: RXF 393, 48 h, read-out: GI.
Assay [19] concerns SN12C. Nature of the assay: Growth inhibition of human SN12C cells at 10^-5 M incubated for 48 hrs by sulforhodamine B assay. The following applies: read-out: GI. The assay is classed as functional.
Assay [20] relates to TK-10. Nature of the assay: Growth inhibition of human TK10 cells at 10^-5 M incubated for 48 hrs by sulforhodamine B assay. The assay is classed as functional. The following applies: TK-10, 48 h, read-out: GI.
Assay [21] concerns PC-3. Description: Growth inhibition of human PC3 cells at 10^-5 M incubated for 48 hrs by sulforhodamine B assay. Particulars: PC-3, 48 h, read-out: GI. The format is functional.
In assay [22] the test system is MDA-MB-231. Description: Growth inhibition of human MDA-MB-231 cells at 10^-5 M incubated for 48 hrs by sulforhodamine B assay. The assay is classed as functional. The following applies: MDA-MB-231, 48 h, read-out: GI.
Assay [23] deals with T47D. Nature of the assay: Growth inhibition of human T47D cells at 10^-5 M incubated for 48 hrs by sulforhodamine B assay. The format is functional. Particulars: read-out: GI.

Structures are written as SMILES. ≈ marks a conversion by molar mass, not a printed value.

Turning to `O=[N+]([O-])c1cccc(C2NC(N3CCOCC3)=Nc3c2sc2ccc(Cl)cc32)c1` (stereo not given), the IC50 (usually the concentration needed to halve the response being measured) in assay [1] amounted to 10.4 µg/mL (≈ 24.3 µM); in [2], 3.11 µg/mL (≈ 7.25 µM). Besides, the inhibition of growth at 10 µM is -3.76% in [3]; 1.5% in assay [4]; 10.1% in assay [5]; 13.4% in assay [6]; 6.39% in [7]; 6.94% in assay [8]. The inhibition of growth at 10 µM in assay [9] is 2.54%; in assay [10] it was 4.08%; in assay [11], -1.17%; in assay [12], -1.1%; in assay [13] it was 8.77%; in assay [14], -0.17%. For the same compound, the inhibition of growth at 10 µM was -3% in assay [15]; -6.18% in [16]; 1.88% in assay [17]; -8.09% in assay [18]; 3.85% in [19]; -10.7% in assay [20]. The inhibition of growth at 10 µM in [21] came to 23%; in [22], 18.3%; in assay [23], 21.6%.
`O=C1/C(=C\c2ccc3ccccc3c2)Sc2ccc(Cl)cc21`: the figures for the IC50 in [1] and in assay [2] were 43.9 µg/mL (≈ 136 µM) and 39.9 µg/mL (≈ 124 µM), respectively. Moreover, the inhibition of growth at 10 µM was 2.65% in assay [3]; 18.6% in [4]; 27.3% in assay [5]; 10.4% in assay [6]; 10.3% in [7]; -8.09% in assay [8]. In addition, the inhibition of growth at 10 µM was -8.84% in [9]; 8.78% in assay [10]; 3.18% in assay [11]; -0.66% in [12]; 21.7% in [13]; -1.8% in assay [14]. The inhibition of growth at 10 µM in assay [15] was -4.13%; in assay [16], -3.03%; in assay [17], 0.99%; in assay [18], -2.24%; in assay [19], 6.38%; in assay [20], -5.61%. In addition, the results for the inhibition of growth at 10 µM in [21], in [22] and in [23] were 11.6%, 12.4% and 29.5%, respectively.
`N#Cc1cnn(C2=Nc3c(sc4ccc(Cl)cc34)C(c3cccc([N+](=O)[O-])c3)N2)c1N` (stereo not given): the IC50 was determined as 11.9 µg/mL (≈ 26.5 µM) in assay [1] and 32.5 µg/mL (≈ 72.2 µM) in [2]. The inhibition of growth at 10 µM in assay [3] was 1.28%; in [4], -0.62%; in assay [5] it was 1.55%; in assay [6], 19.8%; in assay [7] it was 6.34%; in assay [8] it was 2.87%. In addition, the inhibition of growth at 10 µM in assay [9] is -2.52%; in assay [10], -6.04%; in [11], -2.52%; in assay [12], -5.14%; in assay [13] it was 7.54%; in [14], -7.11%. In addition, the inhibition of growth at 10 µM was -2.67% in [15]; 5.04% in [16]; -6.43% in assay [17]; 4.09% in assay [18]; -7.06% in assay [19]; 25.1% in assay [20]. The inhibition of growth at 10 µM in assay [21] was 11%; in [22], 22.9%; in assay [23], 10.1%.
Consider `CCOC(=O)CSC1=Nc2c(sc3ccc(Cl)cc23)C(c2cccc([N+](=O)[O-])c2)N1` (stereo not given), for which the IC50 in assay [1] was 22.1 µg/mL (≈ 47.9 µM); in [2], 11.8 µg/mL (≈ 25.6 µM). Also, the inhibition of growth at 10 µM was 10.3% in assay [3]; 21.4% in assay [4]; -10.1% in assay [5]; 9.36% in assay [6]; 7.77% in [7]; -3.84% in [8]. Also, the inhibition of growth at 10 µM in assay [9] is -0.3%; in [10], 5.55%; in [11] it was -3.62%; in assay [12], -6.23%; in assay [13], 6.62%; in [14], 0.63%. For the same compound, the inhibition of growth at 10 µM in assay [15] was -1.34%; in [16] it was 8.27%; in assay [17], 6.9%; in assay [18], -12.8%; in assay [19], 2.9%; in assay [20], -16.2%. In addition, the inhibition of growth at 10 µM in [21] is 9.33%; in assay [22], 9.26%; in assay [23], 22.6%.
As to `O=C1/C(=C\c2cccc(Br)c2)Sc2ccc(Cl)cc21`, the inhibition of growth at 10 µM in assay [3] is -7.99%; in assay [4] it was -4.42%; in [5], -15.1%; in assay [6], 8.26%; in assay [7], 9.44%; in assay [8] it was -3.89%. Also, the inhibition of growth at 10 µM was -6.33% in assay [9]; -1.08% in assay [10]; -1.09% in assay [11]; -5.68% in assay [12]; 2.69% in [13]; -12.1% in [14]. In addition, the inhibition of growth at 10 µM in assay [15] is -3.52%; in [16], 5.77%; in [17] it was 13.5%; in [18] it was -5.49%; in assay [19] it was -0.02%; in [20], -29.1%. Besides, the inhibition of growth at 10 µM was -1.54% in assay [21], -3.31% in [22] and 1.47% in assay [23].
For `O=C1/C(=C\c2ccccc2O)Sc2ccc(Cl)cc21`, the inhibition of growth at 10 µM is 4.83% in assay [3]; 26.2% in assay [4]; 3% in [5]; 11.7% in [6]; 10.4% in [7]; -6.81% in assay [8]. The inhibition of growth at 10 µM in [9] was -7.92%; in assay [10], 4.11%; in assay [11] it was 0.22%; in assay [12] it was 1.25%; in assay [13], 22.3%; in assay [14] it was -11.6%. The inhibition of growth at 10 µM in assay [15] is 1.53%; in assay [16] it was 5.06%; in assay [17] it was 3.49%; in assay [18], -3.05%; in [19] it was 5.15%; in assay [20], -16%. For the same compound, the values for the inhibition of growth at 10 µM in [21], in [22] and in [23] were 1.43%, 11% and 22.2%, respectively.
Take `N=C1Nc2c(sc3ccc(Cl)cc23)C(c2ccccc2O)N1` (stereo not given): the inhibition of growth at 10 µM in assay [3] is -2.22%; in assay [4], 10.2%; in assay [5], 21.2%; in [6], 10.5%; in [7] it was 4.18%; in assay [8], -6.63%. Moreover, the inhibition of growth at 10 µM in assay [9] is -3.35%; in assay [10], 4.61%; in assay [11], 1.39%; in assay [12] it was 0.27%; in assay [13], 8.57%; in [14], -1.68%. The inhibition of growth at 10 µM in assay [15] was -6.18%; in assay [16], 9.9%; in assay [17], 6.2%; in assay [18] it was 3.66%; in assay [19], -22.4%; in [20], 38%. The inhibition of growth at 10 µM in assay [21] was -12.5%; in assay [22], -5.69%; in assay [23], -13.9%.
